From patent US20130053243A1, “PLANTS HAVING INCREASED TOLERANCE TO HERBICIDES” (BASF SE, priority 2010, published 2013)
pIC50, pKi: −log10 of the molar value.

Legend:
[1] = test system: transgenic soybean plants, event AV3646 (CrHPPD1); assay: Greenhouse spray test, transgenic soybean T0 cuttings; format: in vivo, Glycine max; details: two weeks after treatment, scale 0 (no injury) to 9 (complete death)
Procedure: (§1) Transgenic plants expressing heterologous HPPD or HST enzymes are tested for tolerance against coumarone-derivative herbicides in greenhouse experiments.
(§2) For post emergence treatment, the test plants are first grown to a height of 3 to 15 cm, depending on the plant habit, and only then treated with the herbicides. For this purpose, the test plants are either sown directly and grown in the same containers, or they are first grown separately and transplanted into the test containers a few days prior to treatment.
(§3) For testing of T0 plants, cuttings can be used. In the case of soybean plants, an optimal shoot for cutting is about 7.5 to 10 cm tall, with at least two nodes present. Each cutting is taken from the original transformant (mother plant) and dipped into rooting hormone powder (indole-3-butyric acid, IBA). The cutting is then placed in oasis wedges inside a bio-dome. Wild type cuttings are also taken simultaneously to serve as controls. The cuttings are kept in the bio-dome for 5-7 days and then transplanted to pots and then acclimated in the growth chamber for two more days. Subsequently, the cuttings are transferred to the greenhouse, acclimated for approximately 4 days, and then subjected to spray tests as indicated. Depending on the species, the plants are kept at 10-25° C. or 20-35° C. The test period extends over 3 weeks. During this time, the plants are tended and their response to the individual treatments is evaluated. Herbicide injury evaluations are taken at 2 and 3 weeks after treatment. Plant injury is rated on a scale of 0 to 9, 0 being no injury and 9 being complete death.

[2] = test system: transgenic soybean plants, event LG4628 (CrHPPD2); assay: as above; format: in vivo, Glycine max; details: two weeks after treatment, scale 0 (no injury) to 9 (complete death)
Procedure: as §1, §2, §3

Chlamydomonas HPPD1 = Chlamydomonas HPPD1 (Chlamydomonas reinhardtii, UniProt A0A2K3DET7); assay: HPPD activity assay, wildtype enzyme; format: biochemical; details: calculated from IC50 with Cheng-Prusoff equation, read-out: dissociation constant Ki
Chain of Chlamydomonas HPPD1 (A0A2K3DET7 entry or part of it): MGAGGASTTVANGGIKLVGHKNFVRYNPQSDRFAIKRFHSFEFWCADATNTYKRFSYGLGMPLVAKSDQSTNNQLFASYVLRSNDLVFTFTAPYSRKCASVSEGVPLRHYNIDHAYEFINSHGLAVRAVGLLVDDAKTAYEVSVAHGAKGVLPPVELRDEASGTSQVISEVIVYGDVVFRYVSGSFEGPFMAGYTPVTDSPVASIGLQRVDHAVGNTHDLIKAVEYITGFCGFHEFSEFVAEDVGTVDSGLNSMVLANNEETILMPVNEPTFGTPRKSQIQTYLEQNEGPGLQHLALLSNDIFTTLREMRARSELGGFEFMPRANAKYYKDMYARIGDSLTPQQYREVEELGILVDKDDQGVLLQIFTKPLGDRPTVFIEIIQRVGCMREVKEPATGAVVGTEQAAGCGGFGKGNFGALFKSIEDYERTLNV
Procedure: HPPD produces homogentisic acid and CO2 from 4-hydroxyphenylpyruvate (4-HPP) and O2. The activity assay for HPPD is based on the analysis of homogentisic acid by reversed phase HPLC.
The assay mixture can contain 150 mM potassium phosphate buffer pH 7.0, 50 mM L-ascorbic acid, 1 μM FeSO4 and 7 μg of purified enzyme in a total volume of 1 ml.
Inhibitors are dissolved in DMSO (dimethylsulfoxide) to a concentration of 20 mM or 0.5 mM, respectively. From this stock solution serial five-fold dilutions are prepared in DMSO, which are used in the assay. The respective inhibitor solution accounts for 1% of the assay volume.
After a preincubation of 30 min the reaction is started by adding 4-HPP to a final concentration of 0.1 mM. The reaction is allowed to proceed for 120 min at room temperature. The reaction is stopped by addition of 100 μl of 4.5 M phosphoric acid.
Activities are normalized by setting the uninhibited enzyme activity to 100%. IC50 values are calculated using non-linear regression.
The assay mixture can contain 150 mM potassium phosphate buffer pH 7.0, 50 mM L-ascorbic acid, 100 μM Catalase (Sigma-Aldrich), 1 μM FeSO4 and 0.2 units of purified HPPD enzyme in a total volume of 505 μl. […]
HGA is detected electrochemically at 750 mV (mode: DC; polarity: positive) and quantified by integrating peak areas (Empower software; Waters).
Inhibitors are dissolved in DMSO (dimethylsulfoxide) to a concentration of 0.5 mM. […] IC50 values are calculated using non-linear regression.
Using methods which are described in the above examples or well known in the art, purified, recombinant wildtype HPPD enzymes are characterized with respect to their kinetic properties and sensitivity towards HPPD inhibiting herbicides. Apparent michaelis constants (Km) and maximal reaction velocities (Vmax) are calculated by non-linear regression with the software GraphPad Prism 5 (GraphPad Software, La Jolla, USA) using a substrate inhibition model. […] Weighted means (by standard error) of Km and IC50 values are calculated from at least three independent experiments.

[3] = test system: Chlamydomonas strain CMr06; assay: Growth inhibition of Chlamydomonas strains (tolerance); format: cell-based, Chlamydomonas reinhardtii; details: read-out: IC50 of growth inhibition
Procedure: (§4) Algae cells of Chlamydomonas reinhardtii strains CC-503 and CC-1691 (Duke University, Durham, USA) are propagated in TAP medium (Gorman and Levine (1965) PNAS 54: 1665-1669) by constant shaking at 100 rpm, 22° C. and 30 μmol Phot*m^−2*[…] light illumination. Scenedesmus obliquus (University of Gottingen, Germany) are propagated in algae medium as described (Boger and Sandmann, (1993) In: Target assays for modern herbicides and related phytotoxic compounds, Lewis Publishers) under same culturing conditions as mentioned for Chlamydomonas. Compound screening is performed at 450 μmol Phot*m^−2*[…] illumination.
(§5) Sensitive strains of Chlamydomonas reinhardtii or Scenedesmus obliquus (Tables 14, 15) are mutated with 0.14 […] (EMS) for 1 h as described by Loppes (1969, Mol Gen Genet. 104: 172-177) Tolerant strains are identified by screening of mutagenized cells on solid nutrient solution plates containing “coumarone-derivative herbicides” or other HPPD inhibiting herbicides at wildype-lethal concentrations. Examples of the data obtained are depicted in Table 16 and FIG. 2.

[4] = test system: Chlamydomonas strain CMr05; assay: as above; format: cell-based, Chlamydomonas reinhardtii; details: read-out: IC50 of growth inhibition
Procedure: as §4, §5

[5] = test system: Chlamydomonas strain CMr13; assay: as above; format: cell-based, Chlamydomonas reinhardtii; details: read-out: IC50 of growth inhibition
Procedure: as §4, §5

[6] = test system: Chlamydomonas strain CC1961 wild-type; assay: as above; format: cell-based, Chlamydomonas reinhardtii; details: read-out: IC50 of growth inhibition
Procedure: as §4, §5

[7] = test system: Chlamydomonas strain CMr10; assay: as above; format: cell-based, Chlamydomonas reinhardtii; details: read-out: IC50 of growth inhibition
Procedure: as §4, §5

[8] = test system: Chlamydomonas strain CMr15; assay: as above; format: cell-based, Chlamydomonas reinhardtii; details: read-out: IC50 of growth inhibition
Procedure: as §4, §5

[9] = test system: Chlamydomonas strain CMr04; assay: as above; format: cell-based, Chlamydomonas reinhardtii; details: read-out: IC50 of growth inhibition
Procedure: as §4, §5

`CC1=NOC(c2c(Cl)ccc(C3=C(O)c4ncccc4N(CC(F)F)S3(=O)=O)c2Cl)C1` (centres unmarked) [Inhibitor 1, 3-[2,4-dichloro-3-(3-methyl-4,5-dihydroisoxazol-5-yl)phenyl]-1-(2,2-difluoroethyl)-2,2-dioxo-pyrido[3,2-c]thiazin-4-ol] was tested, and the “Injury evaluation (plant injury rating)” value ([1]; 50 g/ha) was 3, the “Injury evaluation (plant injury rating)” value ([1]; 100 g/ha) was 4 and the “Injury evaluation (plant injury rating)” value ([1]; 200 g/ha) was 4. For the same compound, the “Injury evaluation (plant injury rating)” value ([2]; 50 g/ha) was 4, the “Injury evaluation (plant injury rating)” value ([2]; 100 g/ha) was 3 and the “Injury evaluation (plant injury rating)” value ([2]; 200 g/ha) was 4. The pKi (Chlamydomonas HPPD1) was 7.54, the pIC50 [3] was under 3.00 and the pIC50 [4] was under 3.00. It also gave a pIC50 [5] of 3.09, a pIC50 [6] of 3.21 and a pIC50 [7] of under 3.00. The pIC50 [8] was under 3.00 and the pIC50 [9] was under 3.00.
`Cc1c(C(=O)c2cnn(C)c2O)ccc(S(C)(=O)=O)c1C1=NOCC1` [Topramezone, reference compound] was tested, and the “Injury evaluation (plant injury rating)” value ([1]; 6.25 g/ha) was 6, the “Injury evaluation (plant injury rating)” value ([1]; 12.5 g/ha) was 7 and the “Injury evaluation (plant injury rating)” value ([2]; 6.25 g/ha) was 5. For the same compound, the “Injury evaluation (plant injury rating)” value ([2]; 12.5 g/ha) was 6, the pKi (Chlamydomonas HPPD1) was 7.42 and the pIC50 [3] was 3.07. For the same compound, the pIC50 [4] was 3.15, the pIC50 [5] was 3.70 and the pIC50 [6] was 3.85. It also gave a pIC50 [7] of 3.04, a pIC50 [8] of 3.64 and a pIC50 [9] of 3.41.
